These results are taken from patent US12551459B2, “Combination of kynurenine and antigen presenting cells (APC) as therapeutics and methods for their use in immune modulation” (THE UNIVERSITY OF BRITISH COLUMBIA, priority 2014, dated 2026).

Series [1] deals with C3H/HeJ mice induced to develop alopecia areata (AA). In words: Prevention of alopecia areata in C3H/HeJ mice by fibroblast + kynurenine treatment. Format: in vivo. The protocol: Prevention of alopecia areata by combination fibroblast+kynurenine treatment: C3H/HeJ mice were induce to develop alopecia areata (AA) by intradermal injection of lymph node cells from AA affected mice. These mice (5 per group) then received either no treatment, a single-dose injection of 2×10^6 unmodified primary dermal fibroblasts to peritoneal cavity, oral kynurenine (added to drinking water, 100 μg/mL), or a combination therapy consisting of a) single-dose injection of 2×10^6 unmodified primary dermal fibroblasts to peritoneal cavity and b) oral kynurenine (added to drinking water, 100 μg/mL).

Details of series [2]: species or system mice. Particulars: NOD (non-obese diabetic), mouse, in vivo, sc. The protocol: Non-obese diabetic (NOD) mice were intraperitoneal (IP) injected with normal fibroblasts (non-IDO-expressing, 2×10^7 cells per mouse) at the onset of hyperglycemia. Following IP fibroblast injection, the mice were given daily subcutaneous DL-kynurenine injections (20 μg/mouse). The blood glucose levels were monitored twice a week. For the controls, mice were either given only the IP fibroblast injection, or only the daily subcutaneous kynurenine injections as set out above, or were give no treatment at all.
Furthermore, in mouse 1 and mouse 2 (shown in FIG. 1) the subcutaneous kynurenine injections were stopped at 119 and 77 days post IP fibroblast injection, respectively, without a subsequent increase in blood glucose above 10 mM. Kyn injections were done daily because it was cleared from the blood within 8-10 hours. Glucose levels were monitored for up to 120 days, but control groups were sacrificed at earlier time points due to a high level of glucose and prevent the mice from suffering.

Where [3] appears, read: after 120 days, of Total mice per group.

Turning to `Nc1ccccc1C(=O)CC(N)C(=O)O` (centres unmarked) [FS1 alone, kynurenine], in series [1] (FIG. 4A), the “hair loss pattern after 120 days” value was “some hair growth”. Further, in series [1] (setting [3]), the “AA (number of mice with alopecia areata)” value came out at 4 and the “Normal (number of mice)” value came to 1. The “Prevention (%)” value in series [1] (prevention of AA) turned out to be 20%.

With `Nc1ccccc1C(=O)CC(N)C(=O)O` (racemic) [Kyn, DL-kynurenine], the “cleared from the blood within” value in series [2] is 8 to 10 h.
